Experimental data published in patent publication US20010023254A1, “Use of sulfamate derivatives for treating impulse control disorders” (priority 2000, published 2001).
“Also recorded” adds a separate entry of the source.

Legend:
[1] = tested on: Patients with Binge Eating Disorder (BED); assay: Patients with Binge Eating Disorder (BED) treated clinically with open-label topiramate; format: in vivo, human
Protocol: (§1) In the examples, patients were treated with open-label topiramate starting at 25 mg/qHS and the dosage increased by the patient in 25 mg increments as tolerated by the subjects until a response is seen up to a maximum of 1200 mg. [table]

[2] = tested on: Patients with Overeating, Overweight, and Obesity; assay: Patients with overeating, overweight and obesity treated clinically with topiramate; format: in vivo, human
Protocol: as §1

[3] = tested on: patients who coincidentally had binge eating disorder; assay: Clinical studies of topiramate in mood disorders; patients who coincidentally had binge eating disorder; format: in vivo, human; conditions: several mood disorder patients with coincident binge eating disorder
Excerpt: The activity of the compounds of formula I in treating ICD's was first evidenced in clinical studies conducted to evaluate the efficacy of topiramate in treating mood disorders.

patients with epilepsy = conditions: cited from earlier work
[4] = tested on: Persons with bulimia nervosa; conditions: cited from earlier work
[5] = Pt 5, first trial, max dose 100 mg/day
[6] = Pt 5, second trial, max dose 100 mg/day
[7] = Pt 5, first trial, max dose 250 mg/day
[8] = Pt 5, second trial, max dose 200 mg/day

## CC1(C)O[C@@H]2[C@@H](CO[C@@]3(COS(N)(=O)=O)OC(C)(C)O[C@@H]23)O1 [Topiramate, 2,3;4,5-bis-O-(1-methylethylidene)-beta -D-fructopyranose sulfamate]
[1]; Pt 1, max dose 1200 mg/day
  Loss of weight: Loss of 107 lbs.
  Response of BD (Bipolar Disorder): Remission of BD
  Response of BED (Binge Eating Disorder): Remission of BED
[1]; Pt 2, max dose 150 mg/day
  Discontinuation and its reason (adverse effects): Discontinued due to sedation,; also recorded: cognitive dulling
  Loss of weight: Loss of 5 lbs.
  Response of BD (Bipolar Disorder): Mild improvement of BD,
  Response of BED (Binge Eating Disorder): Moderate decrease of BED,
[1]; Pt 3, max dose 1200 mg/day
  Loss of weight: Loss of 50.5 lbs
  Response of BD (Bipolar Disorder): Moderate improvement of BD.
  Response of BED (Binge Eating Disorder): Remission of BED
[1]; Pt 4, max dose 900 mg/day
  Loss of weight: Loss of 30.5 lbs.
  Response of BD (Bipolar Disorder): Moderate improvement of BD,
  Response of BED (Binge Eating Disorder): Marked improvement of BED,
[1]; [5]
  Discontinuation and its reason (adverse effects): discontinued due to GI distress
  Response of BED (Binge Eating Disorder): First trial: No response of BED,
[1]; [6]
  Loss of weight: Loss of 11 lbs.
  Response of BED (Binge Eating Disorder): Remission of BED
  Response of Compulsive Buying: Remission of Compulsive
[1]; Pt 5, second trial, max dose 100 mg/day, BD in remission at start
  Response of BD (Bipolar Disorder): Second Trial: Worsening of BD
[1]; Pt 6, max dose 100 mg/day
  Response of BED (Binge Eating Disorder): No response of BED
  Weight change: No weight change
[2]; Pt 1, max dose 700 mg/day
  Loss of weight: 9 lbs
  Response of BD (Bipolar Disorder): No response of BD
[2]; Pt 2, max dose 300 mg/day
  Loss of weight: 16 lbs
  Response of BD (Bipolar Disorder): Remission of BD
  Response of overeating: Remission of overeating
[2]; Pt 3 ADJ, max dose 400 mg/day
  Loss of weight: 7 lbs
  Response of BD (Bipolar Disorder): Moderate improvement of BD
  Response of overeating: Moderate improvement of overeating
[2]; Pt 4, max dose 350 mg/day
  Loss of weight: 5 lbs
  Response of BD (Bipolar Disorder): No response of BD
  Response of overeating: Mild improvement in overeating
[2]; [7]
  Loss of weight: 7 lbs
  Response of BD (Bipolar Disorder): First Trial: Worsening of BD
  Response of overeating: Mild decrease of overeating
[2]; [8]
  Body weight, before-after: 154-155 lbs
  Gain of weight: 1 lb
  Response of overeating: Mild decrease of overeating
[2]; Pt 6, max dose 800 mg/day
  Loss of weight: 9 lbs
[2]; Pt 6, max dose 800 mg/day, BD in remission at start
  Response of BD (Bipolar Disorder): Worsening of BD
[2]; Pt 7 NLR, max dose 300 mg/day
  Discontinuation and its reason (adverse effects): Discontinued due to anorexia
  Loss of weight: 46 lbs
  Response of BD (Bipolar Disorder): Worsening of BD
[2]; Pt 8 PR, max dose 700 mg/day
  Loss of weight: 19 lbs
  Reason for discontinuation (adverse effects): G.I. Distress
  Response of BD (Bipolar Disorder): Moderate improvement of BD
  Response of overeating: Marked improvement in overeating
[3]
  Binging, as reported by patients: marked reduction in their binging
  Weight, as reported by patients: concurrent loss in weight
Patients with epilepsy; clinical trials of human epilepsy, adjunctive therapy or monotherapy
  Efficacy in simple and complex partial seizures and secondarily generalized seizures: effective
Patients with epilepsy; controlled trials in patients with epilepsy
  Effect on appetite: suppression of appetite
Patients with epilepsy; controlled trials in patients with epilepsy, unrelated to binge eating
  Effect on weight: weight loss

## O=C1NC(=O)C(c2ccccc2)(c2ccccc2)N1 [phenytoin]
[4]
  Binge eating: reduced binge eating
